These results are taken from patent US10093623B2, “Cyclic amides as MetAP-2 inhibitors” (MERCK PATENT GmbH, priority 2012, dated 2018).

This test has as its target MetAP-2 (Homo sapiens, UniProt P50579). Description: MetAP-2 activity measurement (coupled enzymatic reactions, Met-Arg-Ser substrate, dianisidine detection at 450 nm). It counts as biochemical. As to conditions: Inhibition of MetAP-2; read-out: IC50 enzyme. How it is done: MetAP-2 Activity Measurement
The MetAP-2 activity is determined by coupling enzymatic reactions. The tripeptide Met-Arg-Ser (MAS) is employed as substrate. The methionine liberated is firstly converted into Metox and H2O2 by L-aminooxidase (AAO). In the second step, the peroxidase (POD) with the aid of the H2O2 catalyses the oxidation of the leukodye dianisidine to dianisidineox, the increase of which is detected photometrically at 450 nm.
MetAP-2 activity can be recorded continuously as kinetics. The reaction scheme illustrates that one mol of dianisidineox is formed per mol of methionene. The MetAP-2 enzyme activity can therefore be calculated directly as A absorption per time unit. Qualification of the MetAP-2 activity (mol of Met/time unit) is possible with the aid of the dianisidineox extinction coefficient.
The change in extinction per time unit is depicted graphically and a slope calculation is carried out in the visually linear region of the reaction.

A word on the IC50: it is the point on the concentration scale where inhibition reaches its midpoint.

Where only a bound is given, the exact number is not on record here.

Chain of MetAP-2 (P50579 whole entry, species assumed): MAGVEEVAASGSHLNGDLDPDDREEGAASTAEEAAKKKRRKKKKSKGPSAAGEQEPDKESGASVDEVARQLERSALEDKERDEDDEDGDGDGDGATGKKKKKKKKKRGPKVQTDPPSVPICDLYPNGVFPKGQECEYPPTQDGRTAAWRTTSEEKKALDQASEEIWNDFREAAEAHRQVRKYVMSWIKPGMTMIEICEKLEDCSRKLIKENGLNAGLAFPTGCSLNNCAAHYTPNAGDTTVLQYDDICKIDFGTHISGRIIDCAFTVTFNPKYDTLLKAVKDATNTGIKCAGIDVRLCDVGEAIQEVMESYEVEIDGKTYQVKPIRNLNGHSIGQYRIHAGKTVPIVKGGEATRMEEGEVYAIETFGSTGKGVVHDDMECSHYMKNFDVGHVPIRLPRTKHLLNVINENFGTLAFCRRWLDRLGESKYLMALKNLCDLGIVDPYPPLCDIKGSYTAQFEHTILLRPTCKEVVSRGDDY

On to `O=C(NCCc1ccc(Oc2ccccc2)cc1)[C@@]1(O)CCN(c2ccccc2)C1=O` [A60, N-[2-(4-Phenoxyphenyl)ethyl]-(S)-3-hydroxy-2-oxo-1-phenyl-pyrrolidine-3-carboxamide], for which the IC50 was greater than 10000 nM.
The same measure for `O=C(NCc1cc(F)cc(Cl)c1)C1(O)CCN(C[C@H]2CCCO2)C1=O` (stereo partly drawn) [A225, N-(3-Chloro-5-fluorobenzyl)-3-hydroxy-2-oxo-1-[(R)-1-(tetrahydrofuran-2-yl)methyl]-pyrrolidine-3-carboxamide]: 1000 to 10000 nM.
Under `O=C(NCc1cc(F)cc(Cl)c1)[C@@]1(O)CCN(OCc2ccccc2)C1=O` [B136, N-(3-Chloro-5-fluorobenzyl)-(S)-1-benzyloxy-3-hydroxy-2-oxo-pyrrolidine-3-carboxamide] stands 10 to 1000 nM.
Turning to `O=C1COCCN1c1ccc(N2CCC(O)(C(=O)NCc3cc(F)cc(Cl)c3)C2=O)cn1` (centres unmarked) [A167, N-(3-Chloro-5-fluorobenzyl)-3-hydroxy-2-oxo-1-[6-(3-oxo-morpholin-4-yl)-pyridin-3-yl]-pyrrolidine-3-carboxamide], the IC50 is 10 to 1000 nM.
The same measure for `N#Cc1cncc(N2CC[C@@](O)(C(=O)NCc3cc(F)cc(Cl)c3)C2=O)c1` [A98, N-(3-Chloro-5-fluorobenzyl)-(R)-1-(5-cyanopyridin-3-yl)-3-hydroxy-2-oxopyrrolidine-3-carboxamide]: greater than 10000 nM; for `O=C1N(Cc2ccccc2)CCC[C@@]1(O)CNCc1cc(F)cc(Cl)c1` [B55, (R)-1-Benzyl-3-[(3-chloro-5-fluorobenzylamino)methyl]-3-hydroxypiperidin-2-one]: 1000 to 10000 nM; for `O=C(NCc1cc(F)cc(Cl)c1)[C@@]1(O)CCCN(Cc2ccccc2)C1=O` [A81, N-(3-Chloro-5-fluorobenzyl)-(S)-1-benzyl-3-hydroxy-2-oxopiperidine-3-carboxamide]: 10 to 1000 nM.
As for `CS(=O)(=O)N1CC[C@H](N2CCC(O)(C(=O)NCc3cc(F)cc(Cl)c3)C2=O)C1` (stereo partly drawn) [A281, N-(3-Chloro-5-fluorobenzyl)-(S)-3-hydroxy-1′-methanesulfonyl-2-oxo[1,3′]bipyrrolidinyl-3-carboxamide], the 50% inhibitory concentration (IC50) lay in the range of 1000 to 10000 nM.
Under `O=C(c1cccc(N2CC[C@@](O)(C(=O)NCc3cc(F)cc(Cl)c3)C2=O)c1)N1CCCC1` [A83, N-(3-Chloro-5-fluorobenzyl)-(R)-3-hydroxy-2-oxo-1-[3-(pyrrolidine-1-carbonyl)phenyl]pyrrolidine-3-carboxamide] stands greater than 10000 nM; under `O=C1CCc2cc(N3CC[C@](O)(C(=O)NCc4cc(F)c(F)cc4F)C3=O)ccc2N1` [A245, N-(2,4,5-Trifluorobenzyl)-(S)-3-hydroxy-2-oxo-1-(2-oxo-1,2,3,4-tetrahydroquinolin-6-yl)-pyrrolidine-3-carboxamide], 10 to 1000 nM.
The same measure for `Cc1noc(-c2cc3cc(N4CC[C@](O)(C(=O)NCc5cc(F)cc(Cl)c5)C4=O)ccc3[nH]2)n1` [B135, N-(3-Chloro-5-fluorobenzyl)-(S)-3-hydroxy-1-[2-(3-methyl-1,2,4-oxadiazol-5-yl)-1H-indol-5-yl]-2-oxopyrrolidine-3-carboxamide]: 10 to 1000 nM.
Turning to `O=C(NCc1cc(F)cc(Cl)c1)C1(O)CCN(Cc2ccccc2)C1` (centres unmarked) [A121, N-(3-chloro-5-fluorobenzyl)-1-benzyl-3-hydroxypyrrolidine-3-carboxamide], the IC50 fell in the range of 1000 to 10000 nM.
Regarding `NCCOCCOCCNC(=O)c1cc2cc(N3CC[C@](O)(C(=O)NCc4cc(F)cc(Cl)c4)C3=O)ccc2[nH]1` [B108, N-({2-[2-(2-Aminoethoxy)-ethoxy]ethyl})-5-[(S)-3-(3-chloro-5-fluorobenzylcarbamoyl)-3-hydroxy-2-oxopyrrolidin-1-yl]-1H-indole-2-carboxamide], the IC50 was in the range of 10 to 1000 nM.
The same measure for `O=C1CCc2c(ccc(N3CCC(O)(C(=O)NCc4cc(F)cc(Cl)c4)C3=O)c2F)N1` (centres unmarked) [B124, N-(3-Chloro-5-fluorobenzyl)-1-(5-fluoro-2-oxo-1,2,3,4-tetrahydroquinolin-6-yl)-3-hydroxy-2-oxopyrrolidine-3-carboxamide]: 10 to 1000 nM; for `O=C1N(c2ccccc2)CCC1(O)CNCc1cc(F)cc(Cl)c1` (centres unmarked) [B29, 3-[(3-Chloro-5-fluorobenzylamino)methyl]-3-hydroxy-1-phenylpyrrolidin-2-one]: 10 to 1000 nM.
For `O=C1CCc2cc(N3CC[C@](O)(C(=O)NCc4ccc(Cl)c(F)c4)C3=O)ccc2N1` [A265, N-(4-Chloro-3-fluorobenzyl)-(S)-3-hydroxy-2-oxo-1-(2-oxo-1,2,3,4-tetrahydroquinolin-6-yl)-pyrrolidine-3-carboxamide], the IC50 lay in the range of 1000 to 10000 nM.
The same measure for `NC(=O)c1cncc(N2CCC(O)(C(=O)NCc3cc(F)cc(Cl)c3)C2=O)c1` (centres unmarked) [A216, 5-[3-(3-Chloro-5-fluorobenzylcarbamoyl)-3-hydroxy-2-oxopyrrolidin-1-yl]-nicotinamide]: 10 to 1000 nM; for `O=C(NCc1cc(F)cc(Cl)c1)[C@]1(O)CCN(c2cccc(NS(=O)(=O)C3CC3)c2)C1=O` [A85, N-(3-Chloro-5-fluorobenzyl)-(R)-1-(3-cyclopropanesulfonylamino-phenyl)-3-hydroxy-2-oxo-pyrrolidine-3-carboxamidee]: greater than 10000 nM; for `O=C1N(c2ccccc2)CC[C@]1(O)CNCc1cc(F)cc(Cl)c1` [B59, (S)-3-[(3-Chloro-5-fluorobenzylamino)methyl]-3-hydroxy-1-phenylpyrrolidin-2-one]: 10 to 1000 nM.
The same measure for `CC(C)NC(=O)c1cc2cc(N3CC[C@@](O)(C(=O)NCc4cc(F)cc(Cl)c4)C3=O)ccc2[nH]1` [B89, N-Isopropyl-5-[(R)-3-(3-chloro-5-fluorobenzylcarbamoyl)-3-hydroxy-2-oxopyrrolidin-1-yl]-1H-indole-2-carboxamide]: greater than 10000 nM; for `O=C(NCc1cc(F)cc(Cl)c1)C1(O)CCN(CC2CNC2)C1=O` (centres unmarked) [A218, N-(3-Chloro-5-fluorobenzyl)-1-azetidin-3-ylmethyl-3-hydroxy-2-oxopyrrolidine-3-carboxamide]: greater than 10000 nM.
On to `COC(=O)CCc1cc(N2CCC(O)(C(=O)NCc3cc(F)cc(Cl)c3)C2=O)ccc1NC(=O)OC(C)(C)C` (centres unmarked) [B105, Methyl 3-{2-tert-butoxy-carbonylamino-5-[3-(3-chloro-5-fluorobenzylcarbamoyl)-3-hydroxy-2-oxopyrrolidin-1-yl]-phenyl}propionate], for which the IC50 lay in the range of 10 to 1000 nM.
On to `O=C1CCc2cc(N3CCC(O)(C(=O)NCc4cc(F)cc(Cl)c4)C3=O)cnc2N1` (centres unmarked) [A214, N-(3-Chloro-5-fluorobenzyl)-3-hydroxy-2-oxo-1-(7-oxo-5,6,7,8-tetrahydro-1,8-naphthyridin-3-yl)pyrrolidine-3-carboxamide], for which the IC50 was in the range of 10 to 1000 nM.
The same measure for `CC(C)(C)OC(=O)N1CCC(O)(C(=O)OCc2ccccc2)C1=O` (centres unmarked) [B51, 3-Benzyl 1-tert-butyl 3-hydroxy-2-oxopyrrolidine-1,3-dicarboxylate]: greater than 10000 nM; for `O=C(CN1CCC(O)(C(=O)NCc2cc(F)cc(Cl)c2)C1=O)NCCO` (centres unmarked) [A282, N-(3-Chloro-5-fluorobenzyl)-3-hydroxy-1-[(2-hydroxy-ethylcarbamoyl)methyl]-2-oxo-pyrrolidine-3-carboxamide]: 1000 to 10000 nM.
The same measure for `COc1ccc(CN2CCC(O)(C(=O)NCc3cc(F)cc(Cl)c3)C2=O)cc1` (centres unmarked) [A135, N-(3-Chloro-5-fluorobenzyl)-3-hydroxy-1-(4-methoxybenzyl)-2-oxopyrrolidine-3-carboxamide]: 10 to 1000 nM; for `O=C(NCc1cc(F)cc(Cl)c1)C1(O)CCN(c2cnn(C3CCNCC3)c2)C1=O` (centres unmarked) [A180, N-(3-Chloro-5-fluorobenzyl)-3-hydroxy-2-oxo-1-(1-piperidin-4-yl-1H-pyrazol-4-yl)pyrrolidine-3-carboxamide]: 10 to 1000 nM; for `CN(C)CCN(C)C(=O)[C@@]1(O)CCN(c2ccccc2)C1=O` [A61]: greater than 10000 nM.
The same measure for `O=C(NCc1cc(F)cc(Cl)c1)C1(O)CCN(c2cnc3[nH]c(C(F)(F)F)nc3c2)C1=O` (centres unmarked) [B36, N-(3-Chloro-5-fluorobenzyl)-3-hydroxy-2-oxo-1-(2-trifluoromethyl-3H-imidazo-[4,5-b]pyridin-6-yl)pyrrolidine-3-carboxamide]: 1000 to 10000 nM.
As for `O=C(NCc1cc(F)cc(F)c1)C1(O)CCCN(CC2CCC2)C1=O` (centres unmarked) [A252, N-(3,5-Difluorobenzyl)-1-cyclobutylmethyl-3-hydroxy-2-oxopiperidine-3-carboxamide], the IC50 is 1000 to 10000 nM.
On to `CC(NC(=O)C1(O)CCN(c2ccccc2)C1=O)c1cccc(F)c1` (centres unmarked) [A145, N-[1-(3-Fluorophenyl)ethyl]-3-hydroxy-2-oxo-1-phenyl-pyrrolidine-3-carboxamide], for which the half-inhibitory concentration (IC50) fell in the range of 1000 to 10000 nM.
Under `CC(C)OC(=O)C1(O)CCN(C(=O)OCc2ccccc2)C1=O` (centres unmarked) [B53, 1-Benzyl 3-isopropyl 3-hydroxy-2-oxopyrrolidine-1,3-dicarboxylate] stands greater than 10000 nM.
With `O=C(NCc1cc(F)cc(Cl)c1)C1(O)CCN(Cc2ccccc2)C1=O` (centres unmarked) [A136, N-(3-Chloro-5-fluorobenzyl)-1-benzyl-3-hydroxy-2-oxo-pyrrolidine-3-carboxamide], the IC50 fell in the range of 10 to 1000 nM.
Turning to `O=C(NCc1cc(F)cc(Cl)c1)C1(O)CCN(c2cnn(-c3ccccc3)c2)C1=O` (centres unmarked) [A169, N-(3-Chloro-5-fluorobenzyl)-3-hydroxy-2-oxo-1-(1-phenyl-1H-pyrazol-4-yl)pyrrolidine-3-carboxamide], the IC50 lay in the range of 10 to 1000 nM.
The same measure for `O=C1N(c2ccccc2)CCC1(O)CNCc1cc(F)cc(F)c1` (centres unmarked) [B46, 3-[(3,5-Difluorobenzylamino)-methyl]-3-hydroxy-1-phenyl-pyrrolidin-2-one]: 10 to 1000 nM.
